From patent publication US10815230B2, “Casein kinase 1 delta inhibitor” (ELECTROPHORETICS LIMITED, priority 2015, dated 2020)

What was measured:
Assay in all cases: KINOMEscan binding assay
Details in all cases: read-out: % Ctrl @ 10000 nM
NEK7 = NEK7 (Homo sapiens, UniProt Q8TDX7)
PIK3C2G = PIK3C2G (Homo sapiens, UniProt O75747)
[1] = molecular target: RSK3 Kin.Dom.2-C-terminal (Homo sapiens, UniProt Q15349)
CDK9 = CDK9 (Homo sapiens, UniProt P50750)
ACVR1 = ACVR1 (Homo sapiens, UniProt Q04771)
CDKL5 = CDKL5 (Homo sapiens, UniProt O76039)
CLK2 = CLK2 (Homo sapiens, UniProt P49760)
FYN = FYN (Homo sapiens, UniProt P06241)
[2] = molecular target: RSK2 Kin.Dom.2-C-terminal (Homo sapiens, UniProt P51812)
SGK2 = SGK2 (Homo sapiens, UniProt Q9HBY8)
KIT (V559D) = KIT (V559D) (Homo sapiens, UniProt P10721, V559D)
NDR1 = NDR1 (Homo sapiens, UniProt Q15208)
LOK = LOK (Homo sapiens, UniProt O94804)
IKK-alpha = IKK-alpha (Homo sapiens, UniProt O15111)
PIM1 = PIM1 (Homo sapiens, UniProt P11309)
ALK = ALK (Homo sapiens, UniProt Q9UM73)
RIOK1 = RIOK1 (Homo sapiens, UniProt Q9BRS2)
AKT1 = AKT1 (Homo sapiens, UniProt P31749)
PCTK1 = PCTK1 (Homo sapiens, UniProt Q00536)
STK33 = STK33 (Homo sapiens, UniProt Q9BYT3)
EPHA3 = EPHA3 (Homo sapiens, UniProt P29320)
MLK2 = MLK2 (Homo sapiens, UniProt Q02779)
BRSK1 = BRSK1 (Homo sapiens, UniProt Q8TDC3)
HCK = HCK (Homo sapiens, UniProt P08631)
PIK3CG = PIK3CG (Homo sapiens, UniProt P48736)
PIP5K2B = PIP5K2B (Homo sapiens, UniProt P78356)
MAST1 = MAST1 (Homo sapiens, UniProt Q9Y2H9)
[3] = molecular target: JAK3 (JH1domain-catalytic) (Homo sapiens, UniProt P52333)
DMPK = DMPK (Homo sapiens, UniProt Q09013)
LCK = LCK (Homo sapiens, UniProt P06239)
[4] = molecular target: ABL1 (Q252H) phosphorylated (Homo sapiens, UniProt P00519, Q252H)
ABL1 non-phosphorylated = ABL1 non-phosphorylated (Homo sapiens, UniProt P00519)
NEK3 = NEK3 (Homo sapiens, UniProt P51956)
MYO3A = MYO3A (Homo sapiens, UniProt Q8NEV4)
p38-gamma = p38-gamma (Homo sapiens, UniProt P53778)
BMX = BMX (Homo sapiens, UniProt P51813)
LIMK2 = LIMK2 (Homo sapiens, UniProt P53671)
PKN2 = PKN2 (Homo sapiens, UniProt Q16513)
NEK9 = NEK9 (Homo sapiens, UniProt Q8TD19)
CSNK1D = CSNK1D (Homo sapiens, UniProt P48730)
EGFR (T790M) = EGFR (T790M) (Homo sapiens, UniProt P00533, T790M)
CAMK4 = CAMK4 (Homo sapiens, UniProt Q16566)
PFCDPK1 P. falciparum = PFCDPK1 P. falciparum (Plasmodium falciparum, UniProt P62344)

CDK9, sequence (P50750 whole entry): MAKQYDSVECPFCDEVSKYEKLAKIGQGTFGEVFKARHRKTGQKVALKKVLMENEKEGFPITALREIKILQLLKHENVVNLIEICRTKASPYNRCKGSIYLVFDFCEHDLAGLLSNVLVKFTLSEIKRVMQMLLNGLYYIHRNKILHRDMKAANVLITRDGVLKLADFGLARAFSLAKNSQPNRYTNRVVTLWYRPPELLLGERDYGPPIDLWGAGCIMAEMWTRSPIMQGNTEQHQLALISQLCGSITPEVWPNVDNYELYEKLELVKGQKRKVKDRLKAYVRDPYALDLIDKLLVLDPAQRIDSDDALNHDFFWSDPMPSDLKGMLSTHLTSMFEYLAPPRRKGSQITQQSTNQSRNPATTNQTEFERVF
PCTK1, sequence (Q00536 whole entry): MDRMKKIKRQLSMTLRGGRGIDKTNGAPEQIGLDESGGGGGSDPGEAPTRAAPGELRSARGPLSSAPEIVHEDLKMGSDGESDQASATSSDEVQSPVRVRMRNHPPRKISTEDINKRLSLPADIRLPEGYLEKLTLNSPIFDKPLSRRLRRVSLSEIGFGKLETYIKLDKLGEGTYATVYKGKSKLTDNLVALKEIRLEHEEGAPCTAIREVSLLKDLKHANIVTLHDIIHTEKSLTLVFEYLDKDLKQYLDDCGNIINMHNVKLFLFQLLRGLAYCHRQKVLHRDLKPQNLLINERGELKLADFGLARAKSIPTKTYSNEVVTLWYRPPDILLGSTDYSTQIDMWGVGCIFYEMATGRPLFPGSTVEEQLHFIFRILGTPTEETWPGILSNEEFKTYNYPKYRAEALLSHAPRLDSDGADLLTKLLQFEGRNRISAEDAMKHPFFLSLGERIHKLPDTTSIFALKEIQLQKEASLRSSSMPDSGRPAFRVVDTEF
CLK2, sequence (P49760 whole entry): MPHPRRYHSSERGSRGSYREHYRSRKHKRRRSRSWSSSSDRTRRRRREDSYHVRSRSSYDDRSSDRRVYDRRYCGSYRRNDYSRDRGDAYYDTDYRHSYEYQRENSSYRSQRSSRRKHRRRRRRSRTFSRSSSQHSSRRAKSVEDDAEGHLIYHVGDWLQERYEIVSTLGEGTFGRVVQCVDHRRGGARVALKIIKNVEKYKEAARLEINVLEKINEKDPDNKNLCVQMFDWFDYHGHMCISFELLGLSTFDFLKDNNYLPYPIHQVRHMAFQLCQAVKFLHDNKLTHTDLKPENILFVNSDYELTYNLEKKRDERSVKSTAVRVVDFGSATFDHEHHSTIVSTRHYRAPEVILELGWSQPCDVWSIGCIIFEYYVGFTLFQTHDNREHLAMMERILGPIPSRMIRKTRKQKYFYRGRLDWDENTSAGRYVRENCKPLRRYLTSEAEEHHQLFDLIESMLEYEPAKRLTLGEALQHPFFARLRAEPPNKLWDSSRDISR
BMX, sequence (P51813 whole entry): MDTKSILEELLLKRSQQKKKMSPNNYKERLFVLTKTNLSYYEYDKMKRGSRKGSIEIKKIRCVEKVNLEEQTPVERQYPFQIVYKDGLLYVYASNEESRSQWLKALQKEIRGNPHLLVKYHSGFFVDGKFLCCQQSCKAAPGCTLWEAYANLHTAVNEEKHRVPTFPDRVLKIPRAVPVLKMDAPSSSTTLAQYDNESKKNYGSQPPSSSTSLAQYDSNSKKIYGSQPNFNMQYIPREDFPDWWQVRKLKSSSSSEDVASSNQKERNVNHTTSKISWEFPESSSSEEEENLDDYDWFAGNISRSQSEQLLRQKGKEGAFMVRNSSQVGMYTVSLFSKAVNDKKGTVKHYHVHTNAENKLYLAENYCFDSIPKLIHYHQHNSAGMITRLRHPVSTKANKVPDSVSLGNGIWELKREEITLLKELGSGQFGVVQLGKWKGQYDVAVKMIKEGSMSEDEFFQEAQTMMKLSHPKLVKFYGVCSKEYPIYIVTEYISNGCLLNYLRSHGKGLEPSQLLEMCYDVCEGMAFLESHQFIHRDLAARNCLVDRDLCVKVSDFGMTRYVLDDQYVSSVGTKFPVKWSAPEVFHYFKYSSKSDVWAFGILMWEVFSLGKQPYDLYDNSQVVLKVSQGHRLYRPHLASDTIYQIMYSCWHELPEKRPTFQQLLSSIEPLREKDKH
p38-gamma, sequence (P53778 whole entry): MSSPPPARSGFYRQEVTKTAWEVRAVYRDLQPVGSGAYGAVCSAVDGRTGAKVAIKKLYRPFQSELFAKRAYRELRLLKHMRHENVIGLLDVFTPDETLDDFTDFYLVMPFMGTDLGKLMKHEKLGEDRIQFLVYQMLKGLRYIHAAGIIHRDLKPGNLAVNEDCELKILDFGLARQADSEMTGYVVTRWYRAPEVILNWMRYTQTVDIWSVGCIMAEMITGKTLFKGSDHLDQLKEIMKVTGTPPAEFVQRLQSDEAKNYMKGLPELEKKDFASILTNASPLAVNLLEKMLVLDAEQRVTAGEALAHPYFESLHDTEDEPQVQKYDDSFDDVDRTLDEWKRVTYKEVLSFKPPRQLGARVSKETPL
CSNK1D, sequence (P48730 whole entry): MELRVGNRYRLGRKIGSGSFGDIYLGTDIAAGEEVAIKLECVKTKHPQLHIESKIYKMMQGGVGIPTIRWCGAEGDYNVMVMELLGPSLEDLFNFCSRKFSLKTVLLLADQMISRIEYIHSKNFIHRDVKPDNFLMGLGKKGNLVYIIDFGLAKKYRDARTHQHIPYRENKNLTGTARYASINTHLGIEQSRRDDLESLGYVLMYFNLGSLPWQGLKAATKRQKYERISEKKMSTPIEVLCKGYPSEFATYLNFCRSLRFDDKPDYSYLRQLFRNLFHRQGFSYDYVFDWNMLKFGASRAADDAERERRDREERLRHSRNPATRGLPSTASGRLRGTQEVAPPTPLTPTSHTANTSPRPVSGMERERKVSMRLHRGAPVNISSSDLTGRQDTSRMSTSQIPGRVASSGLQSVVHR
EPHA3, sequence (P29320 21-983): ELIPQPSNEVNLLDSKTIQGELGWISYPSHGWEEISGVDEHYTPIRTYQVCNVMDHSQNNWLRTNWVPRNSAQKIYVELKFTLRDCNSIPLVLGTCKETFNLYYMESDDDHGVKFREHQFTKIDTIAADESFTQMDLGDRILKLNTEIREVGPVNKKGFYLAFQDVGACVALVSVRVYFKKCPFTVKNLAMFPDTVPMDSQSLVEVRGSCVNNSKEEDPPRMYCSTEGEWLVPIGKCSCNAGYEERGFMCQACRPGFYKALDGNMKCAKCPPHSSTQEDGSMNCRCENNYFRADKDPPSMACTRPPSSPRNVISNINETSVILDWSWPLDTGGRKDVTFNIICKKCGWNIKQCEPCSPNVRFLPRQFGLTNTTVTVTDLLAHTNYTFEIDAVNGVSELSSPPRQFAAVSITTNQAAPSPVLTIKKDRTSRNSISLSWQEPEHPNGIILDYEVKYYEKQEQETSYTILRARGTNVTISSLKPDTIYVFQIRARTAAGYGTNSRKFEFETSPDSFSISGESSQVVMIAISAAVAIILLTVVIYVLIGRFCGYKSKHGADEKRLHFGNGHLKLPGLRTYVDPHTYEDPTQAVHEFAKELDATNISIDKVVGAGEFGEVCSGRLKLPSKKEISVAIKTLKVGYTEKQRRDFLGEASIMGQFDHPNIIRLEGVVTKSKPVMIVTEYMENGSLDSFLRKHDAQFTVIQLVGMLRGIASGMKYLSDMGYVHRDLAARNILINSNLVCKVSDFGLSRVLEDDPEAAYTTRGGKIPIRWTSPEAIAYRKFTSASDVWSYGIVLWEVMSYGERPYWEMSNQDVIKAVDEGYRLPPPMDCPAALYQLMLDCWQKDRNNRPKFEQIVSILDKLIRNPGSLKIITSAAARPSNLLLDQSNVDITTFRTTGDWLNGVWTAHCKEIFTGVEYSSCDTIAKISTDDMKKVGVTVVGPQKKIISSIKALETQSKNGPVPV
DMPK, sequence (Q09013 whole entry): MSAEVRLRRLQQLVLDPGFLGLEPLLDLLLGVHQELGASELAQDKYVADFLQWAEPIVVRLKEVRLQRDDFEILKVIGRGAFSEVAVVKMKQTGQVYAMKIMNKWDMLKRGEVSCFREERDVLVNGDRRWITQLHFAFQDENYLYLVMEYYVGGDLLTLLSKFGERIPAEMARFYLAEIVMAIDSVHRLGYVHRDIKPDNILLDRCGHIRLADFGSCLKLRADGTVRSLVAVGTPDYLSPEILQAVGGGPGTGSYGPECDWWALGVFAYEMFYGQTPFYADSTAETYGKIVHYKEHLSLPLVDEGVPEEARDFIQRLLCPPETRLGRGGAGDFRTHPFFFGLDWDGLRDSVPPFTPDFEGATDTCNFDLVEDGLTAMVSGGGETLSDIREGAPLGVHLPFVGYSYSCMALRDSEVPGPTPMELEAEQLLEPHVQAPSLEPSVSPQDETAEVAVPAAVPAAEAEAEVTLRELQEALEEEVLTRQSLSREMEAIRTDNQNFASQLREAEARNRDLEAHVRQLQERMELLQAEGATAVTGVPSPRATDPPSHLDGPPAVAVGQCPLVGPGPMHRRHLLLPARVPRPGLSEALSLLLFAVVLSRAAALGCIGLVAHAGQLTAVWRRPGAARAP
JAK3 (JH1domain-catalytic), sequence (P52333 822-1111 limits assumed): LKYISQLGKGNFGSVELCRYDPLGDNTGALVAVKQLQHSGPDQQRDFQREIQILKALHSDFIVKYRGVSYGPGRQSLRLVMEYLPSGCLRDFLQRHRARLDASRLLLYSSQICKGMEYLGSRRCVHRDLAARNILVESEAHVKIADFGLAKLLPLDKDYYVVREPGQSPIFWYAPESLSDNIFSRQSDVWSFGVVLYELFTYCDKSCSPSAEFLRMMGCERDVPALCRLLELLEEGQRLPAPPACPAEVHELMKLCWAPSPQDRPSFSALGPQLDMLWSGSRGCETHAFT
RSK2 Kin.Dom.2-C-terminal, sequence (P51812 422-679 limits assumed): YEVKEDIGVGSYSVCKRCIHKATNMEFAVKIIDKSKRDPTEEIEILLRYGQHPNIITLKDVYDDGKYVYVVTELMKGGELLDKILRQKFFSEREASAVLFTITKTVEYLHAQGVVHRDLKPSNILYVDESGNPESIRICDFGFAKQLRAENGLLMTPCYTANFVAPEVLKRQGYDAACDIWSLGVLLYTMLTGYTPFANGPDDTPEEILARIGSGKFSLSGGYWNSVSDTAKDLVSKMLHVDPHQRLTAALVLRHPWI

Compound: Nc1ncc(-c2nc3ccccc3o2)c(-c2ccncc2)n1 [Comparative Compound 324, 5-(1,3-benzoxazol-2-yl)-4-(pyridine-4-yl)pyrimidin-2-amine]
- remaining binding at 10 µM (NEK7): 100%
- remaining binding at 10 µM (PIK3C2G): 99%
- remaining binding at 10 µM [1]: 100%
- remaining binding at 10 µM (CDK9): 83%
- remaining binding at 10 µM (ACVR1): 100%
- remaining binding at 10 µM (CDKL5): 97%
- remaining binding at 10 µM (CLK2): 78%
- remaining binding at 10 µM (FYN): 60%
- remaining binding at 10 µM [2]: 100%
- remaining binding at 10 µM (SGK2): 100%
- remaining binding at 10 µM (KIT (V559D)): 69%
- remaining binding at 10 µM (NDR1): 73%
- remaining binding at 10 µM (LOK): 72%
- remaining binding at 10 µM (IKK-alpha): 92%
- remaining binding at 10 µM (PIM1): 98%
- remaining binding at 10 µM (ALK): 89%
- remaining binding at 10 µM (RIOK1): 100%
- remaining binding at 10 µM (AKT1): 96%
- remaining binding at 10 µM (PCTK1): 95%
- remaining binding at 10 µM (STK33): 77%
- remaining binding at 10 µM (EPHA3): 86%
- remaining binding at 10 µM (MLK2): 100%
- remaining binding at 10 µM (BRSK1): 98%
- remaining binding at 10 µM (HCK): 100%
- remaining binding at 10 µM (PIK3CG): 32%
- remaining binding at 10 µM (PIP5K2B): 100%
- remaining binding at 10 µM (MAST1): 86%
- remaining binding at 10 µM [3]: 74%
- remaining binding at 10 µM (DMPK): 100%
- remaining binding at 10 µM (LCK): 88%
- remaining binding at 10 µM [4]: 100%
- remaining binding at 10 µM (ABL1 non-phosphorylated): 81%
- remaining binding at 10 µM (NEK3): 69%
- remaining binding at 10 µM (MYO3A): 98%
- remaining binding at 10 µM (p38-gamma): 61%
- remaining binding at 10 µM (BMX): 100%
- remaining binding at 10 µM (LIMK2): 100%
- remaining binding at 10 µM (PKN2): 94%
- remaining binding at 10 µM (NEK9): 100%
- remaining binding at 10 µM (CSNK1D): 3.8%
- remaining binding at 10 µM (EGFR (T790M)): 88%
- remaining binding at 10 µM (CAMK4): 89%
- remaining binding at 10 µM (PFCDPK1 P. falciparum): 78%

Compound: CNc1c(C(N)=O)c2ccccn2c1C(=O)c1ccc(F)cc1 [Compound A, 2-methyl-amino-3-[(4-fluorophenyl)carbonyl]indolizine-1-carboxamide]
- remaining binding at 10 µM (NEK7): 100%
- remaining binding at 10 µM (PIK3C2G): 100%
- remaining binding at 10 µM [1]: 68%
- remaining binding at 10 µM (CDK9): 74%
- remaining binding at 10 µM (ACVR1): 95%
- remaining binding at 10 µM (CDKL5): 94%
- remaining binding at 10 µM (CLK2): 57%
- remaining binding at 10 µM (FYN): 33%
- remaining binding at 10 µM [2]: 43%
- remaining binding at 10 µM (SGK2): 100%
- remaining binding at 10 µM (KIT (V559D)): 19%
- remaining binding at 10 µM (NDR1): 74%
- remaining binding at 10 µM (LOK): 61%
- remaining binding at 10 µM (IKK-alpha): 96%
- remaining binding at 10 µM (PIM1): 92%
- remaining binding at 10 µM (ALK): 90%
- remaining binding at 10 µM (RIOK1): 100%
- remaining binding at 10 µM (AKT1): 91%
- remaining binding at 10 µM (PCTK1): 89%
- remaining binding at 10 µM (STK33): 72%
- remaining binding at 10 µM (EPHA3): 68%
- remaining binding at 10 µM (MLK2): 91%
- remaining binding at 10 µM (BRSK1): 100%
- remaining binding at 10 µM (HCK): 65%
- remaining binding at 10 µM (PIK3CG): 79%
- remaining binding at 10 µM (PIP5K2B): 100%
- remaining binding at 10 µM (MAST1): 75%
- remaining binding at 10 µM [3]: 100%
- remaining binding at 10 µM (DMPK): 100%
- remaining binding at 10 µM (LCK): 23%
- remaining binding at 10 µM [4]: 37%
- remaining binding at 10 µM (ABL1 non-phosphorylated): 42%
- remaining binding at 10 µM (NEK3): 66%
- remaining binding at 10 µM (MYO3A): 98%
- remaining binding at 10 µM (p38-gamma): 79%
- remaining binding at 10 µM (BMX): 91%
- remaining binding at 10 µM (LIMK2): 100%
- remaining binding at 10 µM (PKN2): 100%
- remaining binding at 10 µM (NEK9): 100%
- remaining binding at 10 µM (CSNK1D): 1.4%
- remaining binding at 10 µM (EGFR (T790M)): 65%
- remaining binding at 10 µM (CAMK4): 96%
- remaining binding at 10 µM (PFCDPK1 P. falciparum): 0.9%
